This note sets out measurements from paper PMC3914206.

The target in assay [1] is T1, panel of 442 kinases (Homo sapiens, UniProt Q08881).
T1 construct: purchased KINOMEscan
T1 sequence (Q08881 1-620): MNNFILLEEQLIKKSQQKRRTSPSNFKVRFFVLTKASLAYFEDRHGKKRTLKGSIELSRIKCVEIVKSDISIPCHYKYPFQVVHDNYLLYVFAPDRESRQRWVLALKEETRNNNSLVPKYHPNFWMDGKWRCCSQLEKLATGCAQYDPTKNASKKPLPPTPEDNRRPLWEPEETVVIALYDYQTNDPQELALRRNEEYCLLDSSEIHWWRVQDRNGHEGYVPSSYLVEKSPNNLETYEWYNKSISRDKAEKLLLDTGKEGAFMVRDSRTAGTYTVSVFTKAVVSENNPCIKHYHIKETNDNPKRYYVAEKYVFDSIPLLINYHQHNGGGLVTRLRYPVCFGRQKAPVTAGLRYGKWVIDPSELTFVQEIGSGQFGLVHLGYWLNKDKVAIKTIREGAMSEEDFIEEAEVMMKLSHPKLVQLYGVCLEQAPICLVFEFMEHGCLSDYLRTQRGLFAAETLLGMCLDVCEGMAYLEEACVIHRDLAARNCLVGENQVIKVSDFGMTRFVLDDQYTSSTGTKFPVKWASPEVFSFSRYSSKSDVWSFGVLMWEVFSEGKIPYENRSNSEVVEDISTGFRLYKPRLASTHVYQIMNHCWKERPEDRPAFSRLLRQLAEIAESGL
The class given is binding. Conditions: Compound Concentration 10 µM. The text has this: (§1) We assessed the selectivity of members of this scaffold using the KINOMEscan methodology across a near comprehensive panel of 442 kinases [[18,27]].

Assay [2] addresses T2, panel of 442 kinases (Homo sapiens, UniProt Q9UHD2).
T2 construct: purchased KINOMEscan
T2 sequence (Q9UHD2 1-729): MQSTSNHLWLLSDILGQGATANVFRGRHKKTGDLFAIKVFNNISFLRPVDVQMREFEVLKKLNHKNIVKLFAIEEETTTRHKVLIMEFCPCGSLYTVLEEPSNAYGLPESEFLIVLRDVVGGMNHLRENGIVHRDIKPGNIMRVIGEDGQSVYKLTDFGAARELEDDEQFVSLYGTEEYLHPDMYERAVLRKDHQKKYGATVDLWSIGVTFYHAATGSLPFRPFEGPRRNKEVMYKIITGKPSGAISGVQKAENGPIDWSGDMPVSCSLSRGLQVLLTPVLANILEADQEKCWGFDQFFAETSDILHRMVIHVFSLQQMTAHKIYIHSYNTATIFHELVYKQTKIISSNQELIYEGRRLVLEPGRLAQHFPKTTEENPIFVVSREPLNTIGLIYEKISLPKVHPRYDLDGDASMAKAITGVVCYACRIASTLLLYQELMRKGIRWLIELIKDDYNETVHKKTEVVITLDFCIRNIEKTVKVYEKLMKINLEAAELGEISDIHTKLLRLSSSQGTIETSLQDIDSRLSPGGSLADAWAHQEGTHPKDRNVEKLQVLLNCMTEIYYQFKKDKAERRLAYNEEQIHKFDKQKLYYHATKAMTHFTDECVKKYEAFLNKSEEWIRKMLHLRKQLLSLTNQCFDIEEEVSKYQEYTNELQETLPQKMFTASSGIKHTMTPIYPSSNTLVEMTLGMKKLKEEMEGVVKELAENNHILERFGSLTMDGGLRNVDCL
The format is binding. The following applies: kinase TBK1; compound concentration 10 µM.
Source text: as §1

For the compound `CCOc1cc(C(=O)N2CCC(N3CCN(C)CC3)CC2)ccc1Nc1ncc2c(n1)N(C1CCCC1)c1ccccc1C(=O)N2C` [Compound 26], the “KINOMEscan: ITK” value on panel of 442 kinases [1] worked out at 100. The “% Ctrl, TBK1” value at panel of 442 kinases [2] came out at 100 % Ctrl.

Consider `COc1cc(C(=O)N2CCC(N3CCN(C)CC3)CC2)ccc1Nc1ncc2c(n1)N1CCc3cccc(c31)C(=O)N2C` [Compound 24], for which the “% Ctrl, TBK1” value on panel of 442 kinases [2] is 98 % Ctrl.

As for `COc1cc(C(=O)N2CCC(N3CCN(C)CC3)CC2)ccc1Nc1ncc2c(n1)N(C)c1ccccc1C(=O)N2C` [15 (LRRK2-IN-1)], on panel of 442 kinases [1], the “KINOMEscan: ITK” value is on record as 82. Further, on panel of 442 kinases [2], the “% Ctrl, TBK1” value came to 97 % Ctrl.

With `COc1cc(C(=O)N2CCC(N3CCN(C)CC3)CC2)ccc1Nc1ncc2c(n1)N(C1CCCC1)c1ccccc1C(=O)N2C` [Compound 25, 11-cyclopentyl-2-((2-methoxy-4-(4-(4-methylpiperazin-1-yl)piperidine-1-carbonyl)phenyl)amino)-5-methyl-5H-benzo[e]pyrimido[5,4-b][1,4]diazepin-6(11H)-one], at panel of 442 kinases [1], the “KINOMEscan: ITK” value amounted to 100. Also, the “% Ctrl, TBK1” value at panel of 442 kinases [2] is 100 % Ctrl.
